Assay results reported in patent publication US20250098680A1 (priority 2022, published 2025).

Tests used:
Cucumber downey mildew = conditions: described in JP2003081945A; cited from earlier work
Phytophthora infestans [1] = format: cell-based; conditions: for effective pesticide against Phytophthora infestans (summary in words): summary of in vitro screening; for Bio-activity value Phytophthora infestans: tomato leaf discs, compound dissolved in DMSO, visual score 5 days, % from maximal value
[2] = test system: Pseudoperonospora cubensis; assay: Microplate-based cucumber leaf disc screening against Pseudoperonospora cubensis; format: cell-based
Experimental: Background: Pseudoperonospora cubensis is an obligatory pathogen from Oomycetes which is very difficult to grow on synthetic medium. Therefore, the bioactivity screening system based on leaf discs prepared from detached cucumber leaves were used.
Summary: dihydroquinidine or dihydroquinine were dissolved in DMSO were added to cucumber leaf discs infected with Pseudoperonospora and the disease progress was monitored by visual inspection.
General description: Inoculation and maintenance on cucumber leaves, preparation of spore suspension, their growth on leaf discs in microplates and inspection by magnifying glass of Pseudoperonospora cubensis severity of infection.
• 1) Grow plants, in the growth room (27° C.), high light radiation. • 2) Use standard garden soil. • 3) Plant cucumber seeds. • 4) Add fertilizer once a week.
• 1) Put 3 (double) pieces of sterile paper in a square Petri dish. • 2) Work in sterile conditions. • 3) Use leaves from healthy plants. The leaves should be young and healthy, their size should fit to the square plate. • 4) Cut the leaves by a sterile scalpel, leaving a long stem. • 5) Add 10 ml sterile distilled water to wet the paper (the paper should be maximally wet, but without additional dripping water), discard excess of water. […]

Phytophthora infestans [3] = format: in vivo, Phytophthora infestans on tomato; conditions: tomato seedlings, greenhouse, preventative spraying, Formulation 15 or 16, four independent experiments (FIGS. 1-4)

Row | SMILES | bioactivity against Cucumber downey mildew (Cucumber downey mildew) | effective pesticide against Phytophthora infestans (summary in words) (Phytophthora infestans [1]) | Bio-activity value Phytophthora infestans (Phytophthora infestans [1]) | Bio-activity value Pseudoperonospora cubensis ([2]; cucumber leaf discs, compound dissolved in DMSO, visual score 7 days after inoculation, % from maximal value) | effective pesticide against Pseudoperonospora cubensis (summary in words) ([2]; summary of in vitro screening) | efficacy of control of Phytophthora infection (Phytophthora infestans [3])
1 | C=C[C@H]1C[N@@]2CC[C@H]1C[C@H]2[C@H](O)c1ccnc2ccc(OC)cc12 [quinine] | fungicidal bioactivity | – | – | – | – | –
2 | CCC1C[N@]2CC[C@H]1C[C@H]2C(O)c1ccnc2ccc(OC)cc12 (stereo in doubt) [DIHYDROQUININE, (R)-[(2S,4S,5R)-5-ethyl-1-azabicyclo[2.2.2]octan-2-yl](6-methoxyquinolin-4-yl) methanol] | – | affective | 83% | – | – | –
3 | CCC1C[N@]2CC[C@H]1C[C@@H]2C(O)c1ccnc2ccc(OC)cc12 (stereo in doubt) [DIHYDROQUINIDINE, (S)-[(2R,4S,5R)-5-ethyl-1-azabicyclo[2.2.2]octan-2-yl](6-methoxyquinolin-4-yl) methanol] | – | effective | 100% | 66% | effective | up to 89.38%
